Reference: patent US20240384268A1, “Oligonucleotides” (Hudson Institute of Medical Research, priority 2021, published 2024)
In the oligonucleotide strings, read from the 5' end, every base follows the letter of its sugar. An asterisk marks phosphorothioate; unmarked linkages are phosphodiester. Other units and linkages are bracketed, terminal groups are in braces. A string of capitals states the bases alone. d = 2'-deoxy (DNA); m = 2'-O-methyl

Biological target: T1, human TLR9 (Homo sapiens, UniProt Q9NR96)
T1 construct: HA; host or cells: 293XL-hTLR9-HA (HEK293)
T1 sequence (Q9NR96 26-1032): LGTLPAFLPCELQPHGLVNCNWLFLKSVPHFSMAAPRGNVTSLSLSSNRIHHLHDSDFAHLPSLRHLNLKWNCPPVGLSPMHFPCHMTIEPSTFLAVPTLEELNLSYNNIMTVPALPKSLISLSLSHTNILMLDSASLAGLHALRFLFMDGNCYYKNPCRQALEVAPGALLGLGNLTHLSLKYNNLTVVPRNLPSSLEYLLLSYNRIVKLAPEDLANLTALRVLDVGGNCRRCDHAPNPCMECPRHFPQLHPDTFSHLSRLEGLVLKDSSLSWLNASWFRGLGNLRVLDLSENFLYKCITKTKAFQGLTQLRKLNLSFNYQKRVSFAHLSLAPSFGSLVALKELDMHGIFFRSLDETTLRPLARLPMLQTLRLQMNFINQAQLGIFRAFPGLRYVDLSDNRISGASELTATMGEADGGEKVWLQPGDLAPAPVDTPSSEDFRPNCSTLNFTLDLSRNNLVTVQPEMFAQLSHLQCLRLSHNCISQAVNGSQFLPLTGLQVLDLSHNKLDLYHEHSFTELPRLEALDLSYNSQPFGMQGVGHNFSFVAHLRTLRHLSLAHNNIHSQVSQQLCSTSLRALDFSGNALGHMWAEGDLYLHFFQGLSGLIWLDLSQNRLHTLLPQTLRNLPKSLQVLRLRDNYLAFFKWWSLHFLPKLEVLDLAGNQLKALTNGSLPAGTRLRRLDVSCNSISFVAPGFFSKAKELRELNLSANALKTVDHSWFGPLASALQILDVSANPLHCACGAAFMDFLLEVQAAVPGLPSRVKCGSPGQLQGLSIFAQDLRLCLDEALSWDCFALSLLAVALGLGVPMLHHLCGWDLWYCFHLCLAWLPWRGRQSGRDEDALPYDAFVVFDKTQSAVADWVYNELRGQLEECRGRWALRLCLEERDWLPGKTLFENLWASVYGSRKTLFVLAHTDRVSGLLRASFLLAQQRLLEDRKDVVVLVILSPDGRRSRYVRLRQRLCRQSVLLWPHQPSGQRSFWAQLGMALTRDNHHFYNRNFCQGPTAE
Experiment: HEK-TLR9 NF-κB-luciferase reporter, ODN2006 stimulation
Format: cell-based
Conditions: for TLR9-500 nM: averaged NF-κB-Luciferase relative to ODN2006: HEK-TLR9, 500 nM ASO 45 min, then 200 nM ODN2006 overnight, percentage of ODN2006 only; for TLR9 100 nM: MOE-modified ASO at 100 nM; for TLR9 100 nM / TLR9 500 nM: averaged NF-κB-Luciferase relative to ODN2006 condition; for TLR9 500 nM: MOE-modified ASO at 500 nM

Substance	TLR9-500 nM: averaged NF-κB-Luciferase relative to ODN2006	TLR9 100 nM	TLR9 500 nM
mU*mA*mA*mA*mA*T*A*A*G*G*G*G*A*A*T*mA*mG*mG*mG*mG (mU*mA*mA*mA*mA*dT*dA*dA*dG*dG*dG*dG*dA*dA*dT*mA*mG*mG*mG*mG) [[CDKN2B-AS1]80]	64.58%		
GCCCATCCATGAGGTCCTGG (antisense; 2'-MOE modified, pattern not given here) [CTNN2B-2545 MOE]		0.324	0.175
mG*mG*mA*mU*mU*A*A*A*A*C*A*G*A*T*T*mA*mA*mU*mA*mC (GGAUUAAAACAGATTAAUAC; sugars from the 5' end m5 d10 m5, all phosphorothioate, methylation of C not given here) [[CDKN2B-AS1]1774]	27.79%		
mA*mA*mA*mA*mG*A*T*T*A*T*C*T*T*C*T*mU*mU*mU*mA*mA (AAAAGATTATCTTCTUUUAA; sugars from the 5' end m5 d10 m5, all phosphorothioate, methylation of C not given here) [[CDKN2B-AS1]2133]	80.95%		
mG*mA*mU*mU*mA*A*A*A*C*A*G*A*T*T*A*mA*mU*mA*mC*mA (mG*mA*mU*mU*mA*dA*dA*dA*dC*dA*dG*dA*dT*dT*dA*mA*mU*mA*mC*mA) [[CDKN2B-AS1]1773]	44.97%		
mA*mA*mU*mU*mU*A*A*A*G*C*A*T*G*A*A*mU*mA*mU*mU*mA (mA*mA*mU*mU*mU*dA*dA*dA*dG*dC*dA*dT*dG*dA*dA*mU*mA*mU*mU*mA) [[CDKN2B-AS1]645]	53.26%		
mC*mU*mC*mU*mC*T*G*G*T*C*C*C*A*T*C*mC*mC*mU*mU*mC (mC*mU*mC*mU*mC*dT*dG*dG*dT*dC*dC*dC*dA*dT*dC*mC*mC*mU*mU*mC; antisense) [[LINC-PINT]109]	89.85%		
mA*mG*mG*mA*mU*T*A*A*A*A*C*A*G*A*T*mU*mA*mA*mU*mA (mA*mG*mG*mA*mU*dT*dA*dA*dA*dA*dC*dA*dG*dA*dT*mU*mA*mA*mU*mA) [[CDKN2B-AS1] 1775]	63.48%		
mU*mC*mU*mC*mU*G*G*T*C*C*C*A*T*C*C*mC*mU*mU*mC*mU (UCUCUGGTCCCATCCCUUCU; antisense; sugars from the 5' end m5 d10 m5, all phosphorothioate, methylation of C not given here) [[LINC-PINT]108]	100.51%		
mU*mG*mA*mC*mA*T*T*T*C*G*T*G*G*C*T*mC*mC*mU*mA*mC (mU*mG*mA*mC*mA*dT*dT*dT*dC*dG*dT*dG*dG*dC*dT*mC*mC*mU*mA*mC; antisense) [[LINC-PINT]523 KL]	118.29%		
mU*mU*mG*mU*mG*A*A*A*A*G*A*T*T*A*T*mC*mU*mU*mC*mU (mU*mU*mG*mU*mG*dA*dA*dA*dA*dG*dA*dT*dT*dA*dT*mC*mU*mU*mC*mU) [[CDKN2B-AS1]2138]	61.15%		
mA*mA*mG*mA*mU*T*A*T*C*T*T*C*T*T*T*mU*mA*mA*mU*mU (mA*mA*mG*mA*mU*dT*dA*dT*dC*dT*dT*dC*dT*dT*dT*mU*mA*mA*mU*mU) [[CDKN2B-AS1]2131]	59.77%		
mG*mU*mC*mC*mC*A*T*C*C*C*T*T*C*T*G*mC*mU*mG*mC*mC (GUCCCATCCCTTCTGCUGCC; antisense; sugars from the 5' end m5 d10 m5, all phosphorothioate, methylation of C not given here) [[LINC-PINT]102]	101.22%		
TCCGGCCTCGGAAGCTCTCT (antisense; 2'-MOE modified, pattern not given here) [MB21D1-168 MOE]		0.242	0.000
mA*mU*mG*mA*mC*A*T*T*T*C*G*T*G*G*C*mU*mC*mC*mU*mA (mA*mU*mG*mA*mC*dA*dT*dT*dT*dC*dG*dT*dG*dG*dC*mU*mC*mC*mU*mA) [[LINC-PINT]524.1]	107.12%		
mC*mA*mC*mC*mC*T*T*C*T*C*T*C*T*G*G*mU*mC*mC*mC*mA (CACCCTTCTCTCTGGUCCCA; antisense; sugars from the 5' end m5 d10 m5, all phosphorothioate, methylation of C not given here) [[LINC-PINT]116]	102.85%		
mU*mC*mC*mC*mA*T*C*C*C*T*T*C*T*G*C*mU*mG*mA*mC*mA (UCCCATCCCTTCTGCUGACA; sugars from the 5' end m5 d10 m5, all phosphorothioate, methylation of C not given here) [[LINC-PINT]101]	59.80%		
mA*mC*mC*mC*mU*T*C*T*C*T*C*T*G*G*T*mC*mC*mC*mA*mU (mA*mC*mC*mC*mU*dT*dC*dT*dC*dT*dC*dT*dG*dG*dT*mC*mC*mC*mA*mU; antisense) [[LINC-PINT]115]	32.00%		
mU*mG*mA*mU*mG*A*T*G*C*T*T*G*C*A*G*mG*mA*mG*mG*mC (mU*mG*mA*mU*mG*dA*dT*dG*dC*dT*dT*dG*dC*dA*dG*mG*mA*mG*mG*mC) [[LINC-PINT|283.1]	65.76%		
mG*mA*mA*mA*mA*G*A*T*T*A*T*C*T*T*C*mU*mU*mU*mU*mA (GAAAAGATTATCTTCUUUUA; sugars from the 5' end m5 d10 m5, all phosphorothioate, methylation of C not given here) [[CDKN2B-AS1]2134]	61.11%		
mG*mG*mU*mC*mC*C*A*T*C*C*C*T*T*C*T*mG*mC*mU*mG*mC (GGUCCCATCCCTTCTGCUGC; sugars from the 5' end m5 d10 m5, all phosphorothioate, methylation of C not given here) [[LINC-PINT]103]	88.75%		
GGTTTTGGCTGGGATCAAGT (antisense; 2'-MOE modified, pattern not given here) [CAMSAP1-4697 MOE]		0.381	0.200
mA*mA*mG*mG*mU*G*G*C*C*A*C*A*G*G*C*mA*mA*mC*mG*mU (mA*mA*mG*mG*mU*dG*dG*dC*dC*dA*dC*dA*dG*dG*dC*mA*mA*mC*mG*mU; antisense) [[CDKN2B-AS1]2198]	84.28%		
mA*mG*mC*mC*mG*A*A*C*A*G*A*A*G*G*A*mG*mC*mG*mU*mC (AGCCGAACAGAAGGAGCGUC; sugars from the 5' end m5 d10 m5, all phosphorothioate, methylation of C not given here) [[LINC-PINT]587 KL]	57.46%		
mA*mG*mA*mU*mU*A*T*C*T*T*C*T*T*T*T*mA*mA*mU*mU*mU (AGAUUATCTTCTTTTAAUUU; sugars from the 5' end m5 d10 m5, all phosphorothioate, methylation of C not given here) [[CDKN2B-AS1]2130]	78.72%		
mA*mU*mA*mU*mC*T*G*C*T*G*C*C*C*A*C*mC*mU*mU*mC*mU (AUAUCTGCTGCCCACCUUCU; antisense; sugars from the 5' end m5 d10 m5, all phosphorothioate, methylation of C not given here) [[CDKN2B-AS1]831]	73.46%		
TGGCAGGCTCAGTGATGTCT (antisense; 2'-MOE modified, pattern not given here) [CTNN2B-1642 MOE]		0.722	0.479
mG*mC*mA*mA*mG*G*C*A*G*A*G*A*A*A*C*mU*mC*mC*mA*mG (GCAAGGCAGAGAAACUCCAG; sugars from the 5' end m5 d10 m5, all phosphorothioate, methylation of C not given here) [[LINC-PINT]1315 KL]	53.46%		
mC*mC*mA*mU*mC*C*C*T*T*C*T*G*C*T*G*mC*mC*mA*mA*mG (mC*mC*mA*mU*mC*dC*dC*dT*dT*dC*dT*dG*dC*dT*dG*mC*mC*mA*mA*mG; antisense) [ILING-PINT199]	92.72%		
mU*mU*mU*mG*mA*A*A*T*T*C*A*G*A*A*G*mA*mU*mU*mU*mG (mU*mU*mU*mG*mA*dA*dA*dT*dT*dC*dA*dG*dA*dA*dG*mA*mU*mU*mU*mG) [[LINC PINT|2690]	54.33%		
